Holding throughout (test): inhibition of tumour cell growth, NCI panel, 48 h
For assay [1], the system named is A498.
Assay [2] relates to A549.
Assay [3] deals with ACHN.
For assay [4], the system named is CCRF-CEM.
The test system of assay [5] is HOP-92.
The subject of assay [6] is Malme-3M.
The subject of assay [7] is NCI-H460.
Assay [8] concerns OVCAR-4.
Assay [9] concerns OVCAR-5.
The subject of assay [10] is OVCAR-8.
Assay [11] relates to RXF 393.
The subject of assay [12] is SF-268.
The subject of assay [13] is SF-295.
The subject of assay [14] is SNB-75.
For assay [15], the system named is UACC-257.
For assay [16], the system named is UO-31.
The subject of assay [17] is DU-145.
The subject of assay [18] is NCI/ADR-RES.
For assay [19], the system named is PC-3.

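A five-concentration, 48-hour dose response in 96-well plates underlies each endpoint, interpolated linearly between surrounding concentrations. Here, GI50 denotes the concentration required for 50% inhibition of growth.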 The source made the active and inactive calls. Rule as the data show it: active = GI50 up to about 1.1 µM and inactive = higher.

As to `NNC(=O)C(=O)N/N=C(\CCCC(=O)Nc1ccc(Cl)cc1)CC(=O)c1ccc(F)cc1`, the GI50 in assay [1] was 2.66 µM (inactive); in [2], > 100 µM (inactive); in assay [3], 17.8 µM (inactive); in [4] it was > 100 µM (inactive); in assay [5], > 100 µM (inactive); in [6], > 100 µM (inactive). The GI50 in assay [7], in [8], in [9], in assay [10], in assay [11] and in assay [12] was > 100 µM (inactive) throughout. In addition, the GI50 in [13], in assay [14], in assay [15] and in assay [16] was > 100 µM (inactive) each time.
Turning to `CCOC(=O)CSc1nc(-c2ccc(OC)cc2)c(C#N)c(=O)[nH]1`, the GI50 in assay [1], in [2], in assay [3], in assay [4], in assay [17] and in [5] was > 100 µM (inactive) throughout. The GI50 in assay [7], in assay [18], in assay [8], in [9], in [10] and in assay [19] was > 100 µM (inactive) in each case. Moreover, the GI50 in [11] is > 100 µM (inactive); in [12] it was > 100 µM (inactive); in assay [13], > 100 µM (inactive); in [14], > 100 µM (inactive); in [15] it was > 100 µM (inactive); in assay [16] it was 51.9 µM (inactive).
Take `CC1CCC(=O)NCCCCC(=O)N1` (stereo not given): the GI50 in [1], in assay [2], in assay [3], in [4], in assay [5] and in assay [6] was > 100 µM (inactive) throughout. The GI50 in assay [7], in assay [8], in [9], in assay [10], in assay [11] and in assay [12] was > 100 µM (inactive) in each case. The GI50 was > 100 µM (inactive) in assay [13], 43.3 µM (inactive) in [14], > 100 µM (inactive) in assay [15] and > 100 µM (inactive) in assay [16].
Consider `Cc1cc(C)nc(NC(=S)Nc2ccc([N+](=O)[O-])cc2)c1`, for which the GI50 in assay [1], in assay [3], in assay [4], in assay [17], in [5] and in assay [7] was > 100 µM (inactive) in each case. Also, the GI50 in [18], in assay [8], in assay [10], in assay [19], in assay [11] and in assay [12] was > 100 µM (inactive) each time. Moreover, the GI50 in assay [14], in assay [15] and in assay [16] was > 100 µM (inactive) each time.
Turning to `CCOC(=O)c1cc2c(nc1N)-c1ncccc1CC2`, the GI50 in assay [1] is 76.7 µM (inactive); in [2], 38.5 µM (inactive); in assay [3], 61.7 µM (inactive); in [4] it was 20.4 µM (inactive); in assay [5], > 100 µM (inactive); in [6], > 100 µM (inactive). Moreover, the GI50 was 77.1 µM (inactive) in assay [7]; > 100 µM (inactive) in assay [8]; > 100 µM (inactive) in [9]; 83.6 µM (inactive) in assay [10]; > 100 µM (inactive) in [11]; > 100 µM (inactive) in assay [12]. Besides, the GI50 in assay [13] was 54.5 µM (inactive); in assay [14] it was > 100 µM (inactive); in assay [15], 38.5 µM (inactive); in [16], 88.1 µM (inactive).
Regarding `CCCCN(CCCC)CC(O)c1cc(-c2ccc(C(F)(F)F)cc2)nc(-c2ccc(C(F)(F)F)cc2)c1` (stereo not given), the GI50 was > 100 µM (inactive) in assay [1]; > 100 µM (inactive) in [3]; 50.9 µM (inactive) in assay [4]; > 100 µM (inactive) in [17]; 61.5 µM (inactive) in [5]; 44 µM (inactive) in assay [6]. Besides, the GI50 in assay [7] was > 100 µM (inactive); in assay [18], > 100 µM (inactive); in assay [8] it was > 100 µM (inactive); in assay [9] it was > 100 µM (inactive); in assay [10] it was > 100 µM (inactive); in assay [19] it was 55 µM (inactive). Further, the GI50 in assay [12] is > 100 µM (inactive); in [13] it was 26.7 µM (inactive); in assay [14], 13.8 µM (inactive); in assay [15], 49.3 µM (inactive); in assay [16] it was 95.7 µM (inactive).
On to `NC(=O)N/N=C(\Cc1nc2ccc(C(=O)c3ccccc3)cc2nc1O)C(=O)Nc1ccc(Br)cc1`, for which the GI50 in [1], in [2], in assay [3], in assay [4], in assay [5] and in assay [6] was > 100 µM (inactive) each time. The GI50 in assay [7], in assay [8], in [9], in assay [10], in assay [11] and in [12] was > 100 µM (inactive) each time. For the same compound, the GI50 in [13], in assay [14], in assay [15] and in assay [16] was > 100 µM (inactive) in each case.
As for `COc1cccc(NC(=S)Nn2c(C)nc3ccccc3c2=O)c1`, the GI50 in assay [1], in [2], in assay [3], in assay [4], in assay [5] and in [6] was > 100 µM (inactive) throughout. The GI50 in assay [7], in [8], in [9], in assay [10], in [11] and in assay [12] was > 100 µM (inactive) throughout. The GI50 in assay [13], in [14], in [15] and in assay [16] was > 100 µM (inactive) throughout.
Regarding `O=C1OC(C(O)CO)C(C(O)CO)OC1=O` (stereo not given), the GI50 in assay [1], in assay [2], in assay [3], in [4], in [6] and in assay [7] was > 10 µM (inactive) throughout. Also, the GI50 in [18], in [8], in [9], in assay [10], in assay [19] and in [11] was > 10 µM (inactive) each time. Further, the GI50 in [12], in assay [13], in assay [15] and in [16] was > 10 µM (inactive) each time.
Turning to `CCC1(O)CC(c2ccccc2)N(C)C(c2ccccc2)C1` (stereo not given), the GI50 in assay [1], in assay [2], in assay [3], in [4], in assay [5] and in assay [6] was > 100 µM (inactive) each time. Further, the GI50 in assay [7], in assay [8], in assay [9], in assay [10], in assay [11] and in assay [12] was > 100 µM (inactive) each time. Further, the GI50 in [13], in assay [14], in assay [15] and in assay [16] was > 100 µM (inactive) throughout.
Consider `Cc1cc2c(=O)n(-c3ccc(F)cc3)c(C)nc2c(C(=O)O)c1C`, for which the GI50 in assay [1], in [2], in assay [3], in assay [4], in assay [5] and in assay [6] was > 100 µM (inactive) in each case. In addition, the GI50 in assay [7], in [8], in assay [9], in [10], in assay [11] and in assay [12] was > 100 µM (inactive) throughout. The GI50 in assay [13], in assay [14], in assay [15] and in [16] was > 100 µM (inactive) each time.
For `CCN(CCCl)CCNc1c2ccccc2nc2ccc(OC)cc12`, the GI50 in [1] was 1.78 µM (inactive); in [2], 0.557 µM (active); in assay [3], 0.127 µM (active); in assay [4], 0.104 µM (active); in assay [5], 0.822 µM (active); in assay [6] it was 0.861 µM (active). In addition, the GI50 in assay [7] is 0.273 µM (active); in [18] it was 1.35 µM (inactive); in assay [8], 0.794 µM (active); in assay [9] it was 1.36 µM (inactive); in assay [10], 0.263 µM (active); in assay [11] it was 0.54 µM (active). For the same compound, the GI50 in assay [12] is 0.454 µM (active); in assay [13], 0.766 µM (active); in [14] it was 0.966 µM (active); in [15], 1.52 µM (inactive); in assay [16], 1.44 µM (inactive).
